pIC50: −log10 of the molar value. One block for each molecule: values may come before it. The source made the active and inactive calls. No cut-off for these calls is given here.
How the values were obtained:
cells [1] = conditions: Mus musculus, BaF3, 3 h
cells [2] = conditions: Mus musculus, BaF3, 3 h; remark: listed apart in the source
[3] = Inhibition of BCR-ABL Q252H mutant (unknown origin) expressed in mouse BaF3 cells assessed as inhibition of cell growth incubated for 72 hrs by […] CellTiter96 viability analysis; conditions: for pIC50: BaF3, 72 h
cells [4] = conditions: Mus musculus, BaF3, 3 h; remark: listed apart in the source
cells [5] = conditions: Mus musculus, BaF3, 3 h; remark: listed apart in the source
[6] = Inhibition of BCR-ABL H396R mutant (unknown origin) expressed in mouse BaF3 cells assessed as inhibition of cell growth incubated for 72 hrs by […] CellTiter96 viability analysis; conditions: for pIC50: BaF3, 72 h
cells [7] = conditions: Mus musculus, BaF3, 3 h; remark: listed apart in the source
[8] = Inhibition of BCR-ABL Y253H mutant (unknown origin) expressed in mouse BaF3 cells assessed as inhibition of cell growth incubated for 72 hrs by […] CellTiter96 viability analysis; conditions: for pIC50: BaF3, 72 h
[9] = Inhibition of BCR-ABL M351T mutant (unknown origin) expressed in mouse BaF3 cells assessed as inhibition of cell growth incubated for 72 hrs by […] CellTiter96 viability analysis; conditions: for pIC50: BaF3, 72 h
[10] = Inhibition of BCR-ABL F317L mutant (unknown origin) expressed in mouse BaF3 cells assessed as inhibition of cell growth incubated for 72 hrs by […] CellTiter96 viability analysis; conditions: for pIC50: BaF3, 72 h
cells [11] = conditions: Mus musculus, BaF3, 72 h
[12] = Inhibition of BCR-ABL M244V mutant (unknown origin) expressed in mouse BaF3 cells assessed as inhibition of cell growth incubated for 72 hrs by […] CellTiter96 viability analysis; conditions: for pIC50: BaF3, 72 h
[13] = Inhibition of BCR-ABL Y253F mutant (unknown origin) expressed in mouse BaF3 cells assessed as inhibition of cell growth incubated for 72 hrs by […] CellTiter96 viability analysis; conditions: for pIC50: BaF3, 72 h
cells [14] = conditions: Mus musculus, BaF3, 3 h; remark: listed apart in the source
cells [15] = conditions: Mus musculus, BaF3, 3 h; remark: listed apart in the source
[16] = Inhibition of BCR-ABL V379l mutant (unknown origin) expressed in mouse BaF3 cells assessed as inhibition of cell growth incubated for 72 hrs by […] CellTiter96 viability analysis; conditions: for pIC50: BaF3, 72 h
[17] = Cytotoxicity against mouse BaF3 cells assessed as reduction in cell proliferation incubated for 72 hrs by […] CellTiter96 viability analysis; format: toxicity
cells [18] = conditions: Mus musculus, BaF3, 3 h; remark: listed apart in the source
cells [19] = conditions: Mus musculus, BaF3, 3 h; remark: listed apart in the source
[20] = Inhibition of BCR-ABL L387M mutant (unknown origin) expressed in mouse BaF3 cells assessed as inhibition of cell growth incubated for 72 hrs by […] CellTiter96 viability analysis; conditions: for pIC50: BaF3, 72 h
[21] = Inhibition of BCR-ABL F311L mutant (unknown origin) expressed in mouse BaF3 cells assessed as inhibition of cell growth incubated for 72 hrs by […] CellTiter96 viability analysis; conditions: for pIC50: BaF3, 72 h
[22] = Inhibition of BCR-ABL E255K mutant (unknown origin) expressed in mouse BaF3 cells assessed as inhibition of cell growth incubated for 72 hrs by […] CellTiter96 viability analysis; conditions: for pIC50: BaF3, 72 h
cells [23] = conditions: Mus musculus, BaF3, 3 h; remark: listed apart in the source
[24] = Inhibition of BCR-ABL H396P mutant (unknown origin) expressed in mouse BaF3 cells assessed as inhibition of cell growth incubated for 72 hrs by […] CellTiter96 viability analysis; conditions: for pIC50: BaF3, 72 h
[25] = Inhibition of BCR-ABL E255V mutant (unknown origin) expressed in mouse BaF3 cells assessed as inhibition of cell growth incubated for 72 hrs by […] CellTiter96 viability analysis; conditions: for pIC50: BaF3, 72 h
[26] = Inhibition of BCR-ABL F359V mutant (unknown origin) expressed in mouse BaF3 cells assessed as inhibition of cell growth incubated for 72 hrs by […] CellTiter96 viability analysis; conditions: for pIC50: BaF3, 72 h
cells [27] = conditions: Mus musculus, BaF3, 3 h; remark: listed apart in the source
[28] = Inhibition of BCR-ABL G250E mutant (unknown origin) expressed in mouse BaF3 cells assessed as inhibition of cell growth incubated for 72 hrs by […] CellTiter96 viability analysis; conditions: for pIC50: BaF3, 72 h
cells [29] = conditions: Mus musculus, BaF3, 3 h; remark: listed apart in the source
[30] = Inhibition of BCR-ABL H396P mutant (unknown origin) expressed in mouse BaF3 cells assessed as inhibition of tyrosine phosphorylation incubated for 3 hrs by immunoblotting analysis; format: cell-based; conditions: BaF3, 3 h
BaF3 = test: Induction of apoptosis in mouse BaF3 cells expressing Bcr-Abl T315I mutant at 300 to 1500 nM incubated for 72 hrs by Annexin V-phycoerythrin and 7-amino-actinomycin D staining based PCA instrument analysis relative to control; format: functional, cell-based; conditions: dose 300-1500 nM
[31] = Inhibition of BCR-ABL F311L mutant (unknown origin) expressed in mouse BaF3 cells assessed as inhibition of tyrosine phosphorylation incubated for 3 hrs by immunoblotting analysis; format: cell-based; conditions: BaF3, 3 h
[32] = Inhibition of BCR-ABL L387M mutant (unknown origin) expressed in mouse BaF3 cells assessed as inhibition of tyrosine phosphorylation incubated for 3 hrs by immunoblotting analysis; format: cell-based; conditions: BaF3, 3 h
[33] = Inhibition of BCR-ABL phosphorylation in mouse BaF3 cells incubated for 3 hrs by immunoblotting analysis; format: functional, cell-based
[34] = Inhibition of BCR-ABL V379l mutant (unknown origin) expressed in mouse BaF3 cells assessed as inhibition of tyrosine phosphorylation incubated for 3 hrs by immunoblotting analysis; format: cell-based; conditions: BaF3, 3 h
[35] = BaF3, time 72 hrs, condition chronic myelogenous leukemia

pIC50 (cells [1]): > 8.00 | pIC50 (cells [2]): > 8.00 | pIC50 (cells [4]): > 8.00 | pIC50 (cells [5]): > 8.00 | pIC50 (cells [7]): > 8.00 | pIC50 (cells [11]): < 6.70 | pIC50 (cells [14]): > 8.00 | pIC50 (cells [15]): > 8.00 | pIC50 (cells [18]): < 6.00 | pIC50 (cells [19]): 8.00 | pIC50 (cells [23]): 8.00 | pIC50 (cells [27]): > 8.00 | pIC50 (cells [29]): 8.00
SMILES: Cc1nc(Nc2ncc(C(=O)Nc3c(C)cccc3Cl)s2)cc(N2CCN(CCO)CC2)n1 [DASATINIB ANHYDROUS]
pIC50 [3]: 8.47 | IC90 [3, 35]: 0.0112 µM | pIC50 [6]: 8.89 | IC90 [6, 35]: 0.0027 µM | pIC50 [8]: 8.89 | IC90 [8, 35]: 0.003 µM | pIC50 [9]: 8.96 | IC90 [9, 35]: 0.003 µM | pIC50 [10]: 8.13 | IC90 [10, 35]: 0.015 µM | pIC50 [12]: 8.89 | IC90 [12, 35]: 0.0018 µM | pIC50 [13]: 8.85 | IC90 [13, 35]: 0.003 µM | pIC50 [16]: 9.10 | IC90 [16, 35]: 0.0016 µM | IC50 at 72 h [17]: > 0.2 µM | pIC50 [20]: 8.70 | IC90 [20, 35]: 0.004 µM | pIC50 [21]: 8.89 | IC90 [21, 35]: 0.0028 µM | pIC50 [22]: 8.25 | IC90 [22, 35]: 0.0128 µM | pIC50 [24]: 9.22 | IC90 [24, 35]: 0.0012 µM | pIC50 [25]: 7.96 | IC90 [25, 35]: 0.027 µM | pIC50 [26]: 8.66 | IC90 [26, 35]: 0.0048 µM | pIC50 [28]: 8.74 | IC90 [28, 35]: 0.003 µM

pIC50 (cells [1]): 6.30 | pIC50 [30]: 5.57 | pIC50 (cells [2]): < 5.30 | pIC50 (cells [4]): 6.30 | pIC50 [31]: 6.22 | pIC50 (cells [5]): 5.82 | pIC50 [32]: 5.57 | pIC50 (cells [7]): 5.38 | IC50 [33]: Not Active | pIC50 (cells [11]): < 5.19 | pIC50 (cells [14]): 6.00 | pIC50 (cells [15]): 6.40 | pIC50 (cells [18]): < 5.30 | pIC50 (cells [19]): 5.30 | pIC50 [34]: 6.10 | pIC50 (cells [23]): 6.00 | pIC50 (cells [27]): < 5.30 | pIC50 (cells [29]): 5.51
SMILES: Cc1ccc(NC(=O)c2ccc(CN3CCN(C)CC3)cc2)cc1Nc1nccc(-c2cccnc2)n1 [IMATINIB]
Activity (BaF3): inactive | pIC50 [3]: 5.88 | pIC50 [6]: 5.76 | pIC50 [8]: < 5.19 | pIC50 [9]: 6.06 | pIC50 [10]: 5.98 | pIC50 [12]: 5.70 | pIC50 [13]: 5.46 | pIC50 [16]: 5.79 | IC50 at 72 h [17]: > 6.4 µM | pIC50 [20]: 6.00 | pIC50 [21]: 6.32 | pIC50 [22]: 5.28 | pIC50 [24]: 6.07 | pIC50 [25]: < 5.19 | pIC50 [26]: 5.74 | pIC50 [28]: 5.87

— ChEMBL document CHEMBL5715937, “In vitro activity of Bcr-Abl inhibitors AMN107 and BMS-354825 against clinically relevant imatinib-resistant Abl kinase domain mutants” (Cancer Res, 2005)
